The Ki is the dissociation constant of the complex between target and ligand, obtained from inhibition or displacement. As usually defined, the IC50 is the concentration at which inhibition is half-maximal.

These results are taken from US20230146870A1, “METHOD TO QUANTIFY AFFINITY AND SELECTIVITY OF SMALL MOLECULES FOR PROTEINS IN LIVING CELLS” (Ohio State Innovation Foundation, priority 2021, published 2023).

The target of series [1] is T1, native (untagged) murine PKCδ (Mus musculus, UniProt P28867).
T1 construct: For coexpression of full-length unmodified PKC proteins with mVenus as an independent marker; expressed in transfected cells; host or cells: HEK293 (transient, pIRES-mVenus)
Put plainly: FPCBA competition with probe 1, native PKCδ in HEK293 cells. It counts as binding. The following applies: read-out: Cellular Ki for native PKCδ (95% confidence interval).

Series [2] concerns the target T2, native (untagged) murine PKCζ (Mus musculus, UniProt Q02956).
T2 sequence (Q02956 1-592): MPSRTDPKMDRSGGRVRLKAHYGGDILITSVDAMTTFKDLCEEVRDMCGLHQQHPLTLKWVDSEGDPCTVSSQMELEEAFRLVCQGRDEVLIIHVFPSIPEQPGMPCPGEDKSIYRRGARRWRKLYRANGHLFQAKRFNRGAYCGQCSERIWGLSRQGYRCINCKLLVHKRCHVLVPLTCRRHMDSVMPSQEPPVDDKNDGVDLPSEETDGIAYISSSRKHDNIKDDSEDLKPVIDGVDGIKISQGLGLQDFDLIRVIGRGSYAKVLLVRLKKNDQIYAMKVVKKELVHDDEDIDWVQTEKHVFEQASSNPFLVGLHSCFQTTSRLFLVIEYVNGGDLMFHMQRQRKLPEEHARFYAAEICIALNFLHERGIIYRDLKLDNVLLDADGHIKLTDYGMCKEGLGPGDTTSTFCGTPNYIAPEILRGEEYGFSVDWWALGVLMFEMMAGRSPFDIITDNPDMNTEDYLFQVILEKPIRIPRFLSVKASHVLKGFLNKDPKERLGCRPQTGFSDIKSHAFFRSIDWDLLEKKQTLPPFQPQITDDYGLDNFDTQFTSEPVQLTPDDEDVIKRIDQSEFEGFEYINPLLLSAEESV
Put plainly: FPCBA competition with probe 1, native PKCζ in HEK293 cells. It counts as binding. Also noted: expressed in transfected cells; host or cells: HEK293 (ATCC CRL-1573), transient transfection with pIRES-mVenus carrying the PKC gene.

Series [3] concerns the target T3, native (untagged) murine PKCβI (Mus musculus, UniProt P68404).
T3 construct: For coexpression of full-length unmodified PKC proteins with mVenus as an independent marker; expressed in transfected cells; host or cells: HEK293 (transient, pIRES-mVenus)
As to the kind of experiment: FPCBA competition with probe 1, native PKCβI in HEK293 cells. The series is classed as binding. The note with it: read-out: Cellular Ki for native PKCβI (95% confidence interval).

A further series deals with Jurkat lymphocytes. Put plainly: Cytotoxicity assay, Jurkat lymphocytes, 48 h, flow cytometry (Example 3). It counts as cell-based. As to the method: […]. Where noted, 2×BIM1 (4 μM) was included.
The target in series [4] is native (untagged) murine PKCθ (Mus musculus, UniProt Q02111). As to the kind of experiment: FPCBA competition with probe 1, native PKCθ in HEK293 cells. The series is classed as binding. Set-up: expressed in transfected cells; host or cells: HEK293 (ATCC CRL-1573), transient transfection with pIRES-mVenus carrying the PKC gene. The note with it: read-out: Cellular Ki for native PKCθ (95% confidence interval).

The target of series [5] is native (untagged) murine PKCη (Mus musculus, UniProt P23298). As to the kind of experiment: FPCBA competition with probe 1, native PKCη in HEK293 cells. Also noted: expressed in transfected cells; host or cells: HEK293 (ATCC CRL-1573), transient transfection with pIRES-mVenus carrying the PKC gene. The series is classed as binding. The note with it: read-out: Cellular Ki for native PKCη (95% confidence interval).

A further series deals with HEK293 cells. As to the kind of experiment: Cytotoxicity assay, HEK293 cells, 48 h, flow cytometry (Example 3). The note with it: concentrations of ≤10 μM. The method, then: As a preliminary assessment of their ability to activate PKCs, we evaluated the cytotoxicity of 1-3 towards HEK293 and Jurkat cells.
Where noted, 2×BIM1 (4 μM) was included. These diluted solutions of compounds (100 μL) were added to each well of a 96-well plate containing cells in medium (100 μL) in triplicate. For Jurkat lymphocytes, cells were seeded in fresh complete RPMI medium (10% FBS, 1% Pen/Strep) at 4.5×10^5 cells/mL (2× stock, 100 μL per well, [DMSO]=0.2%). […] Cell culture media (100 μL) was carefully removed from each well followed by the addition of the diluted compound solutions (2×, 100 μL) in triplicate.
For orientation: A flow cytometer gives signals particle by particle.

Series [6] addresses native (untagged) murine PKCγ (Mus musculus, UniProt P63318). As to the kind of experiment: FPCBA competition with probe 1, native PKCγ in HEK293 cells. The series is classed as binding. Also noted: For coexpression of full-length unmodified PKC proteins with mVenus as an independent marker; expressed in transfected cells; host or cells: HEK293 (transient, pIRES-mVenus). The note with it: read-out: Cellular Ki for native PKCγ (95% confidence interval).

In the next series the target is PKC proteins. The following applies: cited from earlier work.
The target in series [7] is T4, native (untagged) murine PKCε (Mus musculus, UniProt P16054).
T4 sequence (P16054 1-737): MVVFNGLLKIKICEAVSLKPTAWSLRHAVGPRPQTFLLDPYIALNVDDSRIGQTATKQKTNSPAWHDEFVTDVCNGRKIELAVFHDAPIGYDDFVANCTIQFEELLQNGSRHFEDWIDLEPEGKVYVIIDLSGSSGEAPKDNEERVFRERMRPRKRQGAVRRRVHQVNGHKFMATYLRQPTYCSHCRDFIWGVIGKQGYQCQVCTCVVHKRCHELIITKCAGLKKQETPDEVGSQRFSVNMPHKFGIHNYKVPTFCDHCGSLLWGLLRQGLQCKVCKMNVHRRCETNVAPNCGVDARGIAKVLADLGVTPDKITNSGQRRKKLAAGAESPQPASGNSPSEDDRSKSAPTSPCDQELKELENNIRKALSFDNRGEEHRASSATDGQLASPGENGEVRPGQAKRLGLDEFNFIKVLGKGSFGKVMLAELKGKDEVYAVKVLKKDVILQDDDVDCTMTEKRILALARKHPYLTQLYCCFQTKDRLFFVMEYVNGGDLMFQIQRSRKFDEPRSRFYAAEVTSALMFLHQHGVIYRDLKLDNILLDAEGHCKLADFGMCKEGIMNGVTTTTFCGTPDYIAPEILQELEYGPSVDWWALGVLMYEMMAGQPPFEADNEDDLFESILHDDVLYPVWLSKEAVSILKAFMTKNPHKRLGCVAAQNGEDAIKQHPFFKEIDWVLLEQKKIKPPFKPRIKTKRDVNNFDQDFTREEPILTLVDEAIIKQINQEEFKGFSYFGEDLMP
Put plainly: FPCBA competition with probe 1, native PKCε in HEK293 cells. The note with it: read-out: Cellular Ki for native PKCε (95% confidence interval). The series is classed as binding. Set-up: For coexpression of full-length unmodified PKC proteins with mVenus as an independent marker; expressed in transfected cells; host or cells: HEK293 (transient, pIRES-mVenus).

The target in the next series is PKCδ. The following applies: read-out: Biochemical Ki, PKCδ; cited from earlier work.
Another series concerns the target T5, mouse PKCε-mVenus (Mus musculus, UniProt P16054).
T5 sequence (P16054 1-737): T4 sequence (P16054 1-737)
As to the kind of experiment: Apparent cellular Kd by flow cytometry, HEK293 cells overexpressing PKCε-mVenus (Example 2).

The next series has as its target T6, mouse PKCβI-mVenus (Mus musculus, UniProt P68404).
T6 construct: eight plasmids encoding full length mouse PKC isozymes fused to; expressed in transfected cells; host or cells: HEK293
As to the kind of experiment: Apparent cellular Kd by flow cytometry, HEK293 cells overexpressing PKCβI-mVenus (Example 2). It counts as binding. The method, then: The apparent Kd values of these fluorescent probes were measured using different PKC isozymes (e.g., PKCβI, FIGS. 20A-20D). HEK293 cells were transfected to overexpress PKCβ-mVenus and treated with probes in the presence of verapamil (100 μM) as an inhibitor of efflux.

The target of the next series is mouse PKCθ-mVenus (Mus musculus, UniProt Q02111). As to the kind of experiment: Apparent cellular Kd by flow cytometry, HEK293 cells overexpressing PKCθ-mVenus (Example 2).
For another series, the target named is mouse PKCγ-mVenus (Mus musculus, UniProt P63318). Put plainly: Apparent cellular Kd by flow cytometry, HEK293 cells overexpressing PKCγ-mVenus (Example 2).
A further series deals with mouse PKCη-mVenus (Mus musculus, UniProt P23298). Put plainly: Apparent cellular Kd by flow cytometry, HEK293 cells overexpressing PKCη-mVenus (Example 2).
The target in the next series is mouse PKCα-mVenus (Mus musculus, UniProt P20444). As to the kind of experiment: Apparent cellular Kd by flow cytometry, HEK293 cells overexpressing PKCα-mVenus (Example 2).
The next series addresses mouse PKCδ-mVenus (Mus musculus, UniProt P28867). As to the kind of experiment: Apparent cellular Kd by flow cytometry, HEK293 cells overexpressing PKCδ-mVenus (Example 2).

Values joined by “and” are separate entries in the source; they are usually repeats but may differ in a detail not shown here. Identical values can stand only once. Like-named read-outs stand apart in the source and are kept apart here.

T1 sequence (P28867 whole entry): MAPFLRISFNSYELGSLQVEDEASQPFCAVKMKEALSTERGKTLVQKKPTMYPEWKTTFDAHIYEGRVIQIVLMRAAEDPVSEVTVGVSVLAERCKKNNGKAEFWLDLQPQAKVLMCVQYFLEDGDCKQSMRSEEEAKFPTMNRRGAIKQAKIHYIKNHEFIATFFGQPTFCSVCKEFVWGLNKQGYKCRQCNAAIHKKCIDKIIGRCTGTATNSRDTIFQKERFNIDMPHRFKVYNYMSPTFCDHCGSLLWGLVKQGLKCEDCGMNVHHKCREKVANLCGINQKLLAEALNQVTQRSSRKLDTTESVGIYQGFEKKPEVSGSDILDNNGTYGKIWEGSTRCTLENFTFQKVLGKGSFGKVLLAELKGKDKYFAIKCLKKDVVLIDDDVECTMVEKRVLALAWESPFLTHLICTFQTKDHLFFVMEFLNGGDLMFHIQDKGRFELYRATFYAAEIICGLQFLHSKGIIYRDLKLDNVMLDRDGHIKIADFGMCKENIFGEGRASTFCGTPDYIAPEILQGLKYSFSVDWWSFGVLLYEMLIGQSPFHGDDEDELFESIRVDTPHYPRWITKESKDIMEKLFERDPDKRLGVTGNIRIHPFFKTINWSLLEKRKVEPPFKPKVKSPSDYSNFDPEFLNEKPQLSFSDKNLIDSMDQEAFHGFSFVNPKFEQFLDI
Chain of mouse PKCδ-mVenus (P28867 whole entry): as the sequence (P28867 whole entry) above
Chain of native (untagged) murine PKCη (P23298 whole entry): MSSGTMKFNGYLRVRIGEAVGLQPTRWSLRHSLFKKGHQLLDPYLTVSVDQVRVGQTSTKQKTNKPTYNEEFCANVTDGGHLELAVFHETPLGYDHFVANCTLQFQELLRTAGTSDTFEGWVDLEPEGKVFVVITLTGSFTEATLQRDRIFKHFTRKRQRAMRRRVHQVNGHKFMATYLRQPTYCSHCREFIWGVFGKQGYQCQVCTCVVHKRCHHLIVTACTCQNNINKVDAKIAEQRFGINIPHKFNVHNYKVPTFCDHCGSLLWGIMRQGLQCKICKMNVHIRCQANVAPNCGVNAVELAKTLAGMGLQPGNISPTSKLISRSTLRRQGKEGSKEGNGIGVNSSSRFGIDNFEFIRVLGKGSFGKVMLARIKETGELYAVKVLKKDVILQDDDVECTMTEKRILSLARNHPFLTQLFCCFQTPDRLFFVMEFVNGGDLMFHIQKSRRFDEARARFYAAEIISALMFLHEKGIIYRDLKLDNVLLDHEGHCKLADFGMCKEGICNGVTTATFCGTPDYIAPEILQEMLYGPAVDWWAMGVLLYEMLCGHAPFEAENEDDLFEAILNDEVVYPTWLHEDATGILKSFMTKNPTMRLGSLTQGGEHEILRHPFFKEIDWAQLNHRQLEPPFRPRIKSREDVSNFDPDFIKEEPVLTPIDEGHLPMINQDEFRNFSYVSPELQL
Chain of mouse PKCη-mVenus (P23298 whole entry): as above
T3 sequence (P68404 2-673 isoform P68404-2): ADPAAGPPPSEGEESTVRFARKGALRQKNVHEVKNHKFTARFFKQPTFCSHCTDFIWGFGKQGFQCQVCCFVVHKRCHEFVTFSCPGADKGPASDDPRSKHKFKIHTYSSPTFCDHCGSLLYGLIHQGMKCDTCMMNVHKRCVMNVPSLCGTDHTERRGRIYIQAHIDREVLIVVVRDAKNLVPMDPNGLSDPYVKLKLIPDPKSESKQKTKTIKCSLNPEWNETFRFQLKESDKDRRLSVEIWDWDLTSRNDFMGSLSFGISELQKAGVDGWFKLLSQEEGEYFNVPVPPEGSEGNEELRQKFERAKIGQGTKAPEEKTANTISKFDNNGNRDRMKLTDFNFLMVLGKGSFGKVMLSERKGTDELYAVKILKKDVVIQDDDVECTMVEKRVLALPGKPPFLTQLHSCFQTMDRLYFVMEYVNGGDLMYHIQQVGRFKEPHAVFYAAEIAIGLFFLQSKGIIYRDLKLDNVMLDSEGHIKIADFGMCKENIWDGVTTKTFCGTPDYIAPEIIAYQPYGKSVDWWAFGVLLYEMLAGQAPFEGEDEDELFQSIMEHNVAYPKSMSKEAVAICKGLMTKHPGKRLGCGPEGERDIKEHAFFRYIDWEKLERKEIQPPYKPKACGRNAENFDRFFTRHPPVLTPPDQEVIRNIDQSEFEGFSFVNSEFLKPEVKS
Chain of native (untagged) murine PKCθ (Q02111 whole entry): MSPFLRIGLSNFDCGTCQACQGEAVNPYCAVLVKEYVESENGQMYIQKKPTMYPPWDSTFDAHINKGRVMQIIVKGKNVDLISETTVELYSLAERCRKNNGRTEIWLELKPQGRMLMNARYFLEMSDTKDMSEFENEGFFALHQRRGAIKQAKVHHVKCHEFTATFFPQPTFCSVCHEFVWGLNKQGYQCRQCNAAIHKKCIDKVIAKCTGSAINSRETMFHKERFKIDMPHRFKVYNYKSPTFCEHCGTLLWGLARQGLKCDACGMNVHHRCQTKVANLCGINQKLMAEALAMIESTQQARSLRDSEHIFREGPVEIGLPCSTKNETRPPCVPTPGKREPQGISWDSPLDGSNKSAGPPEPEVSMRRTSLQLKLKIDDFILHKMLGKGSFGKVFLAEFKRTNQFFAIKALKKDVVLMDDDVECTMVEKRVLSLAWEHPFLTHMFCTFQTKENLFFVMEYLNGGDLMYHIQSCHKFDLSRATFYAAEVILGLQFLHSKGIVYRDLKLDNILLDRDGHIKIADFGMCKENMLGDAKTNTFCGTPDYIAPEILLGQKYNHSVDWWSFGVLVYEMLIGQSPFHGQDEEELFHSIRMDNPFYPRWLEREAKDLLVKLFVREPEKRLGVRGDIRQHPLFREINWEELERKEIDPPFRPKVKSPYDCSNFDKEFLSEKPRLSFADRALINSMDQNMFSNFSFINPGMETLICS
Chain of mouse PKCθ-mVenus (Q02111 whole entry): as above

For the compound `CCCC(=O)O[C@@H]1[C@@H](C)[C@@]2(O)[C@@H](C=C(CO)C[C@]3(O)C(=O)C(C)=C[C@@H]23)[C@@H]2C(C)(C)[C@]12OC(=O)CCC` [PDBu, phorbol 12,13-dibutyrate], the Ki was 32 nM and 50 nM in series [1]; 14 nM in series [3]; 50 nM in [4]; 14 nM in series [5]; 44 nM in series [6]; 55 nM in series [7]. In addition, the Ki at PKCδ was […]. Moreover, the “Cellular Ki for native PKCζ” value in series [2] is listed as “No binding”. Also, the “effect of BIM1 on cytotoxicity towards Jurkat lymphocytes” value with Jurkat lymphocytes (BIM1 2 μM) is reported as “completely blocked”. Moreover, the IC50 in the series with Jurkat lymphocytes (read-out: cytotoxicity towards Jurkat lymphocytes, IC50) was 2 nM. Moreover, the “toxicity towards HEK293 cells” value in the series with HEK293 cells is listed as “non-toxic”. Further, the Kd at PKC proteins (in the presence of phospholipids) was ~1 nM; at PKC proteins (without phospholipids), ~160 nM.
Take `CCN(CCCCCCCCCCCCNC(=O)c1cc2cc(F)c(O)c(F)c2oc1=O)C(=O)O[C@@]12[C@H](O)[C@@H](C)[C@@]3(O)[C@@H](C=C(CO)C[C@]4(O)C(=O)C(C)=C[C@@H]34)[C@@H]1C2(C)C` [probe 47, (1aR,1bS,4aR,7aS,7bS,8R,9R,9aS)-4a,7b,9-trihydroxy-3-(hydroxymethyl)-1,1,6,8-tetramethyl-5-oxo-1,1a,1b,4,4a,5,7a,7b,8,9-decahydro-9aH-cyclopropa[3,4]benzo[1,2-e]azulen-9a-yl (12-(6,8-difluoro-7-hydroxy-2-oxo-2H-chromene-3-carboxamido)dodecyl)(ethyl)carbamate]: the Kd is 7900 nM on mouse PKCε-mVenus; 900 nM at mouse PKCβI-mVenus; 13200 nM at mouse PKCθ-mVenus; 2000 nM on mouse PKCγ-mVenus; 8200 nM on mouse PKCη-mVenus; 1600 nM on mouse PKCα-mVenus. In addition, on mouse PKCδ-mVenus, the Kd came to 7800 nM.
